Activity calls are given as the source filed them.

A word on the EC50: it is the concentration that produces a half-maximal response. For orientation: IC50 means the midpoint of a concentration-inhibition curve. For orientation: AC50 means the midpoint of the concentration-response curve, whichever way the signal moves.

Experiment [1] deals with Peroxisome proliferator-activated receptor gamma/Nuclear receptor coactivator 2 (Homo sapiens, UniProt P37231). In kind it is functional.
Experiment [2] in a line: cells. The class given is functional.
Experiment [3] deals with Peroxisome proliferator-activated receptor gamma/Nuclear receptor coactivator 3 (Homo sapiens, UniProt P37231). The class given is functional.
Sequence of Peroxisome proliferator-activated receptor gamma/Nuclear receptor coactivator 3 (P37231 whole entry): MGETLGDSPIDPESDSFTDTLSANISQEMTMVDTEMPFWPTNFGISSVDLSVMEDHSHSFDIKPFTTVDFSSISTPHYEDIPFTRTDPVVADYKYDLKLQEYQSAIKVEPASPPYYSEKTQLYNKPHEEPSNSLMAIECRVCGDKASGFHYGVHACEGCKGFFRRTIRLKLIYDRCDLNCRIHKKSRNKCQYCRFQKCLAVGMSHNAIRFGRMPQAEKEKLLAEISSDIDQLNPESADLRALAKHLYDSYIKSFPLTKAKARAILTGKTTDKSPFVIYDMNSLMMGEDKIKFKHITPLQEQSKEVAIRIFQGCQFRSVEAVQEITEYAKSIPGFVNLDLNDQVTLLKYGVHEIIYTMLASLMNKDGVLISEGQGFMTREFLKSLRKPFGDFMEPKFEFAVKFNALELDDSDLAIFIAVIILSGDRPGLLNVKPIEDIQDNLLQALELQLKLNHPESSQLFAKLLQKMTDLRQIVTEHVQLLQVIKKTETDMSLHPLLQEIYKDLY
Sequence of Peroxisome proliferator-activated receptor gamma/Nuclear receptor coactivator 3 (Q9Y6Q9 whole entry, further chain): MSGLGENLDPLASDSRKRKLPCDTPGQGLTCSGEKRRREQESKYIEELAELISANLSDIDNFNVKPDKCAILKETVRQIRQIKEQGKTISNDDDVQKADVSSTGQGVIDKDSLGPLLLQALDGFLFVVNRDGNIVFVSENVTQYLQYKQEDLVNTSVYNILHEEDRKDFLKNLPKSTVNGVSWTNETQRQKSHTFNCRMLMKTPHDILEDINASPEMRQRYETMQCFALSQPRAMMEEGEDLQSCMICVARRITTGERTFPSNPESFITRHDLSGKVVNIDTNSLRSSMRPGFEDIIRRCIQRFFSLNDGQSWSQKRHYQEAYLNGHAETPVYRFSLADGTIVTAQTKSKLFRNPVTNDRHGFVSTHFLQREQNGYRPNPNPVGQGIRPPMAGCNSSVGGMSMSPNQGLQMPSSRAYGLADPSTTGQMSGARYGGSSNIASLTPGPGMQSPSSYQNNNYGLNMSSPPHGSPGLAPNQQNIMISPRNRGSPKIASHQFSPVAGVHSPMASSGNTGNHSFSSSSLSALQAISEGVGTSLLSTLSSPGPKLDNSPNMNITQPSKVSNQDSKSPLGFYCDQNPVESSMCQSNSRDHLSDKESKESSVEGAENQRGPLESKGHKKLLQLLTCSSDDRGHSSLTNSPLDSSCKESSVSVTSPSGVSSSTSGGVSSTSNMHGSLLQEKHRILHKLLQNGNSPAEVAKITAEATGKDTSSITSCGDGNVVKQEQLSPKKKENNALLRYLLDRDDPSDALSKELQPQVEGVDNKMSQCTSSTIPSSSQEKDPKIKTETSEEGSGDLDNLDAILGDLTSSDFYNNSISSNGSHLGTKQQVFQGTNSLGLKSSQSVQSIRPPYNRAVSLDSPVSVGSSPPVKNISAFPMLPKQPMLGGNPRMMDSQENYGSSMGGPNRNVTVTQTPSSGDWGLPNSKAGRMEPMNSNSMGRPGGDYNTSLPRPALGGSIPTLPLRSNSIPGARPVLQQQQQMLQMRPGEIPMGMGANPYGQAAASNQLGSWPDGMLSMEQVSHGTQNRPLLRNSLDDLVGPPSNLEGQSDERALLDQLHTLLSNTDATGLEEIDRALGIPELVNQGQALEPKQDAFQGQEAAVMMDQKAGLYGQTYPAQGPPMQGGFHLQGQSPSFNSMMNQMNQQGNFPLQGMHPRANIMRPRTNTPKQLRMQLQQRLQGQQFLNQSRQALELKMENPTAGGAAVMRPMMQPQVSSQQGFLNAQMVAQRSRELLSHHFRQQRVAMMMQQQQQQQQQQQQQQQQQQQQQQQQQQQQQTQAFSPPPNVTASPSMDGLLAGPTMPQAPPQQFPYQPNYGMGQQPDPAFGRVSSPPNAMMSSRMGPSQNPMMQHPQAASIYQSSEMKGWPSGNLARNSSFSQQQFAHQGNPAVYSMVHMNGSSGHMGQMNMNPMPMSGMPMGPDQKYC
Experiment [4] deals with T1, Replicative DNA helicase DnaB (Mycobacterium tuberculosis, UniProt P9WMR3).
T1 sequence (P9WMR3 whole entry): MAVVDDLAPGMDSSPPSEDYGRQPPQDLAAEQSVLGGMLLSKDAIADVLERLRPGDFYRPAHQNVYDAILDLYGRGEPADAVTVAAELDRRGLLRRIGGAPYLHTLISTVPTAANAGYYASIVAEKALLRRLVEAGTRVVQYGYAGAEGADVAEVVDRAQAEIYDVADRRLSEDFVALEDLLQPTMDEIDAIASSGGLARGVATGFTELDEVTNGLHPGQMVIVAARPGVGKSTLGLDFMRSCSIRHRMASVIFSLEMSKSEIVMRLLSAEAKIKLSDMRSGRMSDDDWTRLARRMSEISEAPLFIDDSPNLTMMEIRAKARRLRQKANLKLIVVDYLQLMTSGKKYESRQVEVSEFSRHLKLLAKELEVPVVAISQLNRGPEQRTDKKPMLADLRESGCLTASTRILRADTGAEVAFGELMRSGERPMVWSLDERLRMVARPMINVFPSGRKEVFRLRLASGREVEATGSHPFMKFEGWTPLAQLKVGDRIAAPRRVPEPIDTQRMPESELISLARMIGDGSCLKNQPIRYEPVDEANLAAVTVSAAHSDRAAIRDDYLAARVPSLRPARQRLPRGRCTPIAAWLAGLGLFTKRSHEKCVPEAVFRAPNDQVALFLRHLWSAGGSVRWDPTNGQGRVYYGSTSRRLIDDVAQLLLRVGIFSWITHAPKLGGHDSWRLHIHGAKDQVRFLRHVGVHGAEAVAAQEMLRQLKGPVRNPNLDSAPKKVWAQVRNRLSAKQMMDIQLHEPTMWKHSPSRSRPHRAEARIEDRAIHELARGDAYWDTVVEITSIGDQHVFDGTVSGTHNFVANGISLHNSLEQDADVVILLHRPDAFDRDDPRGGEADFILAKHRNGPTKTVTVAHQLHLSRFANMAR
Kind of experiment: DnaB intein splicing inhibitors, dose response, biochemical, cell-free fluorescence (AID 449749). In kind it is functional.

The nature of experiment [5]: growth suppression of beta-catenin-knockout colon cells, dose response, cell-based, HCT116, human colon tumor (AID 1045).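 Note: HCT116 colon tumor cells with beta catenin knocked out; cells exposed to compound for 60 hours.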 The class given is functional.
For experiment [6], the target named is T2, Protein RecA (Mycobacterium tuberculosis, UniProt P9WHJ3).
T2 sequence (P9WHJ3 whole entry): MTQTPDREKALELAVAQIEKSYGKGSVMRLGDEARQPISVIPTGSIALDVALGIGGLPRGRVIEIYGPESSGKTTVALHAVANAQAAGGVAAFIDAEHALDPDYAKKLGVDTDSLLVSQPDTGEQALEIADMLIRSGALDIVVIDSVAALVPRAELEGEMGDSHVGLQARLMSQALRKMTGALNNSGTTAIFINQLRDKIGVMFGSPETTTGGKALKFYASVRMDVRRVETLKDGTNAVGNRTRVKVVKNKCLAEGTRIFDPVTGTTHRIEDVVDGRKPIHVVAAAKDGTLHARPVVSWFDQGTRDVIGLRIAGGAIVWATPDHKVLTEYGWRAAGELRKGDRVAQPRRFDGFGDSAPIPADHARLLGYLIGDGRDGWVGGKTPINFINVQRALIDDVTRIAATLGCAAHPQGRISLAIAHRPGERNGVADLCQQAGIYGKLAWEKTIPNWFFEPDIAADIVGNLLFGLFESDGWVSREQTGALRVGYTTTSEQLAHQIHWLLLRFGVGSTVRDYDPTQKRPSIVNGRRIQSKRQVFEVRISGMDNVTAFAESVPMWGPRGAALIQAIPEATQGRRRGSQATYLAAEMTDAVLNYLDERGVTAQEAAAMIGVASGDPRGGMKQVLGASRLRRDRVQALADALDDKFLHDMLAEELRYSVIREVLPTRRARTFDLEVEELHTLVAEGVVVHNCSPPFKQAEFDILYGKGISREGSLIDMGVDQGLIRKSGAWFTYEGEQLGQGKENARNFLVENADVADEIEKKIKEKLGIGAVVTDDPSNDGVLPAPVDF
Kind of experiment: Fluorescence Cell-Free Homogeneous Dose Retest to Identify Inhibitors of RecA-Intein Splicing Activity. [Related pubchem assays (depositor defined):AID2097, AID2223, AID489010, AID492950]. In kind it is functional.

Experiment [7] has as its target Peroxisome proliferator-activated receptor gamma/Nuclear receptor coactivator 1 (Homo sapiens, UniProt P37231). The class given is functional.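 Note: agonist potency as compounds enhance coactivator SRC-1 recruitment to PPARgamma.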
Experiment [8] in a line: Luminescence Cell-Based Dose Retest to Confirm Inhibitors of Cancer Stem Cells. [Related pubchem assays (depositor defined):AID2717, AID2721]. As to conditions: Homo sapiens. The class given is functional.
The nature of experiment [9]: growth suppression of PTEN-null colon cells, dose response, cell-based, HCT116 PTEN knockout (AID 1047).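 Note: HCT116 colon tumor cells with PTEN knocked out; cells exposed to compound for 60 hours before readout; potency for loss of cell viability measured by luminescence.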 The class given is functional.
Experiment [10] deals with HEK293. Kind of experiment: inhibitors of LMP1-driven NF-kB reporter, dose response, cell-based, HEK293, luciferase, cherry-pick (AID 588343). The class given is functional. The following applies: Homo sapiens.
Experiment [11] concerns HT-1080. Kind of experiment: cytotoxicity in HT1080 fibrosarcoma cells, cell-based, fluorescence readout (AID 620). In kind it is functional. As to conditions: Homo sapiens.
For experiment [12], the target named is Luciferin 4-monooxygenase (Photinus pyralis, UniProt P08659). Kind of experiment: Counter Screen for Luciferase-based Assay Positives. [Related pubchem assays: 620, 618, 411 ].
Sequence of Luciferin 4-monooxygenase (P08659 whole entry): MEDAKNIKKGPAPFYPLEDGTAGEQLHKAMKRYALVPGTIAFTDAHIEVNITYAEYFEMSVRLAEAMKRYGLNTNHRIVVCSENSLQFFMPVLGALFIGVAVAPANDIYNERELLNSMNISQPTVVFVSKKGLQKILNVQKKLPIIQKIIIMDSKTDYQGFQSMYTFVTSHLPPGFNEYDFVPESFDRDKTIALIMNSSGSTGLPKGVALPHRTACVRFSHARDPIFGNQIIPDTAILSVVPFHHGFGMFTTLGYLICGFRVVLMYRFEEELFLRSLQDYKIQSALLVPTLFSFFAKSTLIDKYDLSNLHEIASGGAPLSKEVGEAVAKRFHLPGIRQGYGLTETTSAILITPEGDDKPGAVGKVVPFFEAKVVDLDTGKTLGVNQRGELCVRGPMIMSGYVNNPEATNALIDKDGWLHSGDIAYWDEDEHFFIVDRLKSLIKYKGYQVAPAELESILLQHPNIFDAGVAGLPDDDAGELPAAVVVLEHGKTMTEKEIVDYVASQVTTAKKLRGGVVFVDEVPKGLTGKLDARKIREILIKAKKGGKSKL
Experiment [13] can be described thus: cytotoxicity in HEK-293T cells, dose response, cytotoxicity control for BCR NF-kB inhibitor project, luminescence, B-cell screen hits (AID 489021).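 Note: HEK-293T cells carrying an NF-kB luciferase reporter; cells exposed to compound for about 14 hours before viability readout.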 The class given is functional, cell-based.
Experiment [14] concerns Streptococcus sp. 'group A'. Kind of experiment: growth inhibition of control SK(-) GAS strain, dose response, counter-screen for streptokinase expression inhibitor project, luminescence, kanamycin, BacTiterGlo, confirmation (AID 1900). In kind it is functional, organism-based. In general terms: Counterscreens check selectivity or assay interference.
The target of experiment [15] is T3, Coagulation factor XII (Homo sapiens, UniProt P00748).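 Note: activated factor XIIa alpha cleaving a fluorogenic AMC peptide substrate; inhibitor potency from loss of enzyme activity.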
T3 sequence (P00748 whole entry): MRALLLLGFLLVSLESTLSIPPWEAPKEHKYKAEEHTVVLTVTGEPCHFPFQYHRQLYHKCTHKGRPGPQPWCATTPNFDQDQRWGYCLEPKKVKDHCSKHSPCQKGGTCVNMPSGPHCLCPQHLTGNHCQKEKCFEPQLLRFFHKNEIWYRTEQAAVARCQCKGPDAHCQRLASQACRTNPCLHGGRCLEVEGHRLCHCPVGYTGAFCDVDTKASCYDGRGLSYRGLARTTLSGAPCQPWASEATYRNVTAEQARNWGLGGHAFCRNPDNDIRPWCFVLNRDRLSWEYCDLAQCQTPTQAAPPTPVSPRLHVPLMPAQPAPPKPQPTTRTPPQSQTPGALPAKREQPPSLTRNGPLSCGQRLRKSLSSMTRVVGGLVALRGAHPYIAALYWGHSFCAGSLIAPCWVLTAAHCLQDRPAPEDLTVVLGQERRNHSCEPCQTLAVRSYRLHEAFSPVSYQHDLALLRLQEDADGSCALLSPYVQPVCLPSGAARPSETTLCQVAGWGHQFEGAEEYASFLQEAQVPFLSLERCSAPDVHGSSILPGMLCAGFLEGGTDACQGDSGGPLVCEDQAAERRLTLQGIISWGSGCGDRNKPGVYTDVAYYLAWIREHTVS
In kind it is functional.

In experiment [16] the target is T4, Neuropeptide Y receptor type 2 (Homo sapiens, UniProt P49146).
T4 sequence (P49146 whole entry): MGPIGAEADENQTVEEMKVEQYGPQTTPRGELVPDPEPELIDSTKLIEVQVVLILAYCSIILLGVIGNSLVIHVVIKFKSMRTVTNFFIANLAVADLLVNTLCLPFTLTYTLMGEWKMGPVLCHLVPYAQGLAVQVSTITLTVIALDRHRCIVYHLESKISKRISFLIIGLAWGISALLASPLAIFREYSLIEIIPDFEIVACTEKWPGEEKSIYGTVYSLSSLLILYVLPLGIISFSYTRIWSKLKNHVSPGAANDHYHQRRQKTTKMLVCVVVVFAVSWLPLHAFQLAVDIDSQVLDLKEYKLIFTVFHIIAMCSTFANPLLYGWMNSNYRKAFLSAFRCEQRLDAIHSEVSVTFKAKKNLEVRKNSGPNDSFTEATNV
Kind of experiment: NPY-Y2 antagonist potency, selectivity check, dose response, counter-screen for NPY-Y1 antagonist project, cell-based (AID 1278). In kind it is functional.

The nature of experiment [17]: cytotoxicity in HPDE-C7 cells, cell-based, fluorescence, HTS (AID 430). In kind it is functional. The following applies: Homo sapiens.
Experiment [18] deals with T5, Neuropeptide Y receptor type 1 (Homo sapiens, UniProt P25929).
T5 sequence (P25929 whole entry): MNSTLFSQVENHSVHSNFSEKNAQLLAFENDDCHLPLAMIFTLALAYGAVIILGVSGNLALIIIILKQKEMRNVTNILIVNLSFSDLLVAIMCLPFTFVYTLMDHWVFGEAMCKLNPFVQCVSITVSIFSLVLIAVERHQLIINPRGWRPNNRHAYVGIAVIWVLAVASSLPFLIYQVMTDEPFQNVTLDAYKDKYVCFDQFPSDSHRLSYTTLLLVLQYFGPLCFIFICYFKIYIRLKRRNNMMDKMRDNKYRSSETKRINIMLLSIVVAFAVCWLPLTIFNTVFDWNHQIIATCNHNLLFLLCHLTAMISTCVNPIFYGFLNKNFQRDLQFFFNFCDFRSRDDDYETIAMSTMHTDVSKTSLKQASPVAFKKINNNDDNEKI
Kind of experiment: NPY-Y1 receptor antagonist potency, dose response, cell-based (AID 1277). In kind it is functional.

Experiment [19] concerns Streptococcus. Kind of experiment: Group A Streptococcus viability loss, dose response, counter-screen for streptokinase expression inhibitor project, luminescence, BacTiterGlo (AID 1915).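 Note: potency for reduction of bacterial viability or growth.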 The class given is functional, organism-based.
Experiment [20] can be described thus: cytotoxicity in KRAS-transformed pancreatic duct cells, primary screen, cell-based, fluorescence, HTS (AID 431).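 Note: cell line used: HPDE-C7K.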 The class given is functional. The following applies: Homo sapiens.
Experiment [21] deals with T6, Streptokinase A (Streptococcus pyogenes serotype M1, UniProt P10520).
T6 sequence (P10520 whole entry): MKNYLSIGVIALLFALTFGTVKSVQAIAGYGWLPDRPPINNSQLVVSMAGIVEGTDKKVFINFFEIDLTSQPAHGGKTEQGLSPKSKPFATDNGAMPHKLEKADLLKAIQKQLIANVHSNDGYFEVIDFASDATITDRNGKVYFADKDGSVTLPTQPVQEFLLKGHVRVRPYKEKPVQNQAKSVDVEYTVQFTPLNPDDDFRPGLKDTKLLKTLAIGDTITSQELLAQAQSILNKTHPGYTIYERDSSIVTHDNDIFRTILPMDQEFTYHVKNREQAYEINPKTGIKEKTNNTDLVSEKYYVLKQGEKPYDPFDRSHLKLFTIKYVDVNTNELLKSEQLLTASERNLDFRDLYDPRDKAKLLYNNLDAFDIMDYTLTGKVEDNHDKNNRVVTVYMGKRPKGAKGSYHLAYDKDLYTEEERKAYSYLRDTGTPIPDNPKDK
Kind of experiment: S. pyogenes streptokinase expression inhibitors, potency, dose response, plasminogen activation absorbance, OD405 (AID 1914).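 Note: secreted streptokinase activity via plasminogen activation per viability signal from cell pellet.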 In kind it is functional, Streptococcus pyogenes M1 GAS.

Sequence of Peroxisome proliferator-activated receptor gamma/Nuclear receptor coactivator 1 (P37231 whole entry): as the sequence (P37231 whole entry) above
Sequence of Peroxisome proliferator-activated receptor gamma/Nuclear receptor coactivator 1 (Q15788 whole entry, further chain): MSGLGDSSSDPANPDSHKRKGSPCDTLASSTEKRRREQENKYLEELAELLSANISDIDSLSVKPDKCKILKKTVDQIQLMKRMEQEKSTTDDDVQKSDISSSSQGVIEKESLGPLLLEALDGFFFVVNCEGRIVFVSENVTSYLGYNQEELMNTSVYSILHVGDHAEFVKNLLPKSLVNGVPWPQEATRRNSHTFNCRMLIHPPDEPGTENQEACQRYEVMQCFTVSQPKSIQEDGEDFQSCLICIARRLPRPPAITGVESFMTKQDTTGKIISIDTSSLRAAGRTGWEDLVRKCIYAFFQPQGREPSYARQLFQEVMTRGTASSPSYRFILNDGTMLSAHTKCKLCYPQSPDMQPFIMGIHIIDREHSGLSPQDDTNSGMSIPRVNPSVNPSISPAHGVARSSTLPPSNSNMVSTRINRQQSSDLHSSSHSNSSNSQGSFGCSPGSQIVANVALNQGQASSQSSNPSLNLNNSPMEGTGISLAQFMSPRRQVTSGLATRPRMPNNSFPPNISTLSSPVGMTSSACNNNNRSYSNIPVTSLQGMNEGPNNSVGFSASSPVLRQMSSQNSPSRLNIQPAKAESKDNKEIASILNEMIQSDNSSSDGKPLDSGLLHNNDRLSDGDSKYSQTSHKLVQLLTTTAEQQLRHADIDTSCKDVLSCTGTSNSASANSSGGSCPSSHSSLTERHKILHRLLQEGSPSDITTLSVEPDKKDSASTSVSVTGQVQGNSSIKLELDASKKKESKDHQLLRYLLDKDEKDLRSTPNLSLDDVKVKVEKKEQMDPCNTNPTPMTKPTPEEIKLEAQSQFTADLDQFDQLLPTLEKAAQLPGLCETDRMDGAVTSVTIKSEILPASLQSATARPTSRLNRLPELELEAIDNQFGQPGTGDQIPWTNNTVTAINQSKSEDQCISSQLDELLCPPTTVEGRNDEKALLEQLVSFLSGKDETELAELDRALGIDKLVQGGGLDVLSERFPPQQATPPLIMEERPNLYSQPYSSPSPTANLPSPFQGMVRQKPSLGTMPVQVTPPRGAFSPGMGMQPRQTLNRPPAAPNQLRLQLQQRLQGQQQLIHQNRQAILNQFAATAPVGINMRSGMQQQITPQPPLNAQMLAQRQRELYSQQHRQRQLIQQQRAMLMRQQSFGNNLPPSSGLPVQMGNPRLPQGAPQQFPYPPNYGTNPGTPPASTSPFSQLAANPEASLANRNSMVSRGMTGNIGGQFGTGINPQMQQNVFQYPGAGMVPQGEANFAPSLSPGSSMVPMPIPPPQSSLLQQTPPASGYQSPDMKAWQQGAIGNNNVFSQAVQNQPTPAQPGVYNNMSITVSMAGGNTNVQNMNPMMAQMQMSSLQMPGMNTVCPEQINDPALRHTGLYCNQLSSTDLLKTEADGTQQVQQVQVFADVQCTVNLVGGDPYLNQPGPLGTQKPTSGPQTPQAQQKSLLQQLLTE

Consider `Cc1n[nH]c2c1C(c1ccc(-c3ccc(Cl)cc3)o1)C(C#N)=C(N)O2` (stereo unspecified), for which the EC50 in [1] was > 79.4 µM (not active); in experiment [3], > 79.4 µM (not active); in experiment [5], 9.79 µM (active); in experiment [6] it was 28.6 µM (active); in experiment [7] it was > 79.4 µM (not active); in experiment [9], 10.6 µM (active). In experiment [2], the concentration for half-maximal inhibition (IC50) was 39.7 µM (active). Moreover, the values for the AC50 in experiment [4] and in [8] were 41.8 µM (active) and 6.86 µM (active), respectively.
Turning to `O=C(CN1C(=O)c2ccccc2S1(=O)=O)c1ccccc1`, the AC50 in experiment [10] was 1.36 µM (active). For the same molecule, the EC50 in experiment [11] was > 50 µM (not active); in experiment [12] it was > 100 µM (not active).
In the case of `O=C(C1CCC1)N1CCN(S(=O)(=O)c2ccc([N+](=O)[O-])cc2)CC1`, in experiment [13], the IC50 is > 80 µM (inactive).
With `O=C(Nc1ccc(NC(=O)c2ccco2)nc1)c1ccccn1`, the EC50 in experiment [11] is > 50 µM (not active); in [12] it was 9.44 µM (active).
As to `CC(NC(=O)Nc1nnc(C(F)(F)F)s1)(C(F)(F)F)C(F)(F)F`, the EC50 in experiment [14] was 3.54 µM (active); in [17], 8.76 µM (active); in experiment [19] it was 7.84 µM (active); in [20] it was 14.4 µM (active); in experiment [21], > 150 µM (not active). Further, the IC50 in experiment [15] was > 50 µM (inactive); in [16], > 35 µM (not active); in experiment [18], > 35 µM (not active).
Consider `CS(=O)(=O)N(CC(=O)NCc1ccncc1)Cc1ccc(Cl)cc1`, for which the EC50 in [1], in experiment [3] and in [7] was > 79.4 µM (not active) each time.
In the case of `CC(=O)NC1=NC(=O)/C(=C/c2cc(C)n(-c3ccc(NC(C)=O)cc3)c2C)S1`, the EC50 in experiment [1], in [3] and in experiment [7] was > 79.4 µM (not active) each time.
As to `CCCCCC/C=C/c1ccc(OC)c([C@H]2[C@H]3C=CC[C@@H](C)[C@@H]3C(=O)N2Cc2ccccc2)c1`, the IC50 in experiment [13] is > 80 µM (inactive).
On the same count and under the same terms, the figure for `COc1ccc(/C=N\NC(=O)c2sccc2C)cc1Cn1nc(C)cc1C` is > 80 µM (inactive).

For the origin of these results see ChEMBL document CHEMBL1201862, “PubChem BioAssay data set” (2004).
